Measured values taken from US20220160820A1, “MODULATORS OF COMPLEMENT ACTIVITY” (Ra Pharmaceuticals, Inc., priority 2019, published 2022).

Columns and labels:
[1] = tested on: human C5 polymorphisms (including p.R885>H/C); assay: Binding and inhibitory activities in presence of C5 polymorphisms; settings: presence of clinically-relevant human C5 polymorphisms (including p.R885>H/C)
[2] = biological target: surface-bound C5b-9 or soluble membrane attack complex (sC5b-9) (Homo sapiens, UniProt P01031); assay: Binding to C5b-9 / soluble membrane attack complex
[3] = tested on: Co-cultures of human myotubes and neuroblastoma cells; assay: In vitro NMJ model: autoantibody-induced C5b-9 deposition by immunofluorescence; format: cell-based; settings: 10 μM zilucoplan; anti-AChR 637 IgG1; human sera; anti-C5b-9 immunofluorescence
Protocol: Co-cultures of human myotubes and neuroblastoma cells were prepared and cultured with human sera as an in vitro NMJ model. […] Subsequent deposition of C5b-9 was observed by immunofluorescence using an anti-C5b-9 antibody (aE11, AbCam. Cambridge. UK).

[4] = In-vitro permeability, basement membrane model; format: in vitro ADME
Description: In some embodiments, the present disclosure provides methods of inhibiting C5 activity in a tissue by contacting the tissue with a tissue-penetrating C5 inhibitor. As used herein, the term “tissue-penetrating” refers to a property characterized by tissue permeability. […] Tissue penetration may be assessed by ability to cross basement membranes. As used herein, the term “basement membrane” refers to an extracellular matrix (ECM) protein layer separating endothelial cells from underlying tissues. Tissue penetration assessments may be done in vivo or in vitro and may include the use of basement membrane models. Such models may include measuring compound diffusion across artificial basement membranes. Such models may include the use of upper and lower reservoirs separated by an artificial basement membrane. Artificial basement membranes may include any of the ECM gel membranes described in Arends, F. et al. 2016. IntechOpen, DOI: 10.5772/62519, the contents of which are herein incorporated by reference in their entirety. ECM gel membranes may be prepared to include matrix components mimicking those found in the basal lamina of neuromuscular junctions.
The ECM gel membrane was prepared to include matrix components mimicking those found in the basal lamina of neuromuscular junctions.

[5] = Quantitative whole body analysis (QWBA) of radiolabeled zilucoplan; format: in vivo; settings: rats, 24 hours
Protocol: In some embodiments, compound permeability may be determined using quantitative whole body analysis (QWBA). QWBA is a form of analysis that uses radiography to assess distribution of radiolabeled analytes. In some embodiments, radiolabeled compounds are administered to subjects and tissue distribution of the compounds is analyzed over time.
Enhanced permeability of zilucoplan was confirmed by quantitative whole body analysis (QWBA). […] Area under the concentration curve (AUC) for each organ or tissue analyzed was expressed as a percentage of plasma AUC to yield a biodistribution value, presented in Table 2 below. […] 5:297-305, are provided for comparison.

[6] = In vivo drug-drug interaction study with cyclosporine A; settings: following cyclosporine A administration; NHPs
[7] = In vivo drug-drug interaction study with anti-FcRn monoclonal antibody DX-2507; settings: concomitant dosing of anti-FcRn monoclonal antibody DX-2507; Cynomolgus monkeys
Description: (§1) By inhibiting FcRN, DX-2504 inhibits Fc-mediated recycling, thereby reducing the half-life of IgG antibodies. Administration of DX-2504 serves as a model for intravenous immunoglobulin (IVIG) treatment, which reduces the half-life of IgG antibodies by overwhelming the Fc recycling mechanism with large doses of immunoglobulin.

[8] = Zilucoplan levels in a patient receiving concomitant IVIG; format: in vivo, human; settings: patient receiving concomitant therapeutic doses of IVIG
Description: as §1

## CCCCCCCCCCCCCCCC(=O)N[C@@H](CCC(=O)NCCOCCOCCOCCOCCOCCOCCOCCOCCOCCOCCOCCOCCOCCOCCOCCOCCOCCOCCOCCOCCOCCOCCOCCOCCCCC(=O)NCCCC[C@H](NC(=O)[C@@H](NC(=O)[C@@H]1CCCN1C(=O)[C@H](Cc1ccc(O)cc1)NC(=O)[C@H](CCC(=O)[O-])NC(=O)[C@H](Cc1c[nH]c2ncccc12)NC(=O)[C@H](Cc1ccc(O)cc1)NC(=O)[C@@H](NC(=O)[C@H](CC(=O)[O-])N(C)C(=O)[C@@H]1CC(=O)NCCCC[C@H](NC(C)=O)C(=O)N[C@@H](C(C)C)C(=O)N[C@@H](CCC(=O)O)C(=O)N[C@@H](CCCNC(=N)N)C(=O)N[C@@H](Cc2ccccc2)C(=O)N1)C(C)(C)C)C1CCCCC1)C(=O)[O-])C(=O)[O-].[Na+].[Na+].[Na+].[Na+] [zilucoplan]
[1]
  binding and inhibitory activities: not affected
[2]
  binding to surface-bound C5b-9 or sC5b-9: does not bind
[3]
  C5b-9 deposition: absent
[4]; 24 hours
  fraction introduced to upper reservoir diffused to lower reservoir: more than 60%
[4]; after 12 hours
  fraction introduced to upper reservoir diffused to lower reservoir: Greater than 20%
[5]; Bone
  Zilucoplan biodistribution % (tissue AUC as percentage of plasma AUC): 15.3%
[5]; Brain
  Zilucoplan biodistribution % (tissue AUC as percentage of plasma AUC): 0.9%
[5]; Fat
  Zilucoplan biodistribution % (tissue AUC as percentage of plasma AUC): 16.2%
[5]; Heart
  Zilucoplan biodistribution % (tissue AUC as percentage of plasma AUC): 22.9%
[5]; Large Intestine
  Zilucoplan biodistribution % (tissue AUC as percentage of plasma AUC): 21.7%
[5]; Liver
  Zilucoplan biodistribution % (tissue AUC as percentage of plasma AUC): 27.1%
[5]; Lung
  Zilucoplan biodistribution % (tissue AUC as percentage of plasma AUC): 37.5%
[5]; Lymph nodes
  Zilucoplan biodistribution % (tissue AUC as percentage of plasma AUC): 12.8%
[5]; Muscle
  Zilucoplan biodistribution % (tissue AUC as percentage of plasma AUC): 7.0%
[5]; Pancreas
  Zilucoplan biodistribution % (tissue AUC as percentage of plasma AUC): 15.8%
[5]; Small Intestine
  Zilucoplan biodistribution % (tissue AUC as percentage of plasma AUC): 10.9%
[5]; Spleen
  Zilucoplan biodistribution % (tissue AUC as percentage of plasma AUC): 15.5%
[5]; Stomach
  Zilucoplan biodistribution % (tissue AUC as percentage of plasma AUC): 8.5%
[5]; Testes
  Zilucoplan biodistribution % (tissue AUC as percentage of plasma AUC): 15.5%
[5]; Thymus
  Zilucoplan biodistribution % (tissue AUC as percentage of plasma AUC): 7.8%
[6]
  effects on zilucoplan exposure: No effects
[7]
  Zilucoplan pharmacodynamics: did not change
  Zilucoplan pharmacokinetics: did not change
[8]
  changes in zilucoplan levels: no changes
